Results as given in ChEMBL document CHEMBL3885881, “DrugMatrix”.

Species on record: Rattus norvegicus
Experiment: DrugMatrix - Regimen: Daily Repeat
Assay type: toxicity, organism-based, Sprague-Dawley
Design: regimen Daily Repeat, gender Male, age 6-8 weeks
Details: in vivo, sc, route mini-PUMP - SUBCUTANEOUS, vehicle 100 % SALINE
[1] = 2 mg/kg, 72 h, tissue Blood, dose level High, time 3 day
[2] = 2 mg/kg, 72 h, tissue Plasma, dose level High, time 3 day
[3] = 2 mg/kg, 120 h, tissue Blood, dose level High, time 5 day
[4] = 2 mg/kg, 120 h, tissue Plasma, dose level High, time 5 day
[5] = 2 mg/kg, […], tissue Blood, dose level High, time 14 day
[6] = 2 mg/kg, […], tissue Plasma, dose level High, time 14 day

CC(C)NCC(O)c1ccc(O)c(O)c1 (centres undefined) [ISOPROTERENOL]
NUCLEATED RED BLOOD CELLS (0 mg/kg, […], tissue Blood, dose level Control, time 14 day): 0.17 /100WBC
CREATINE PHOSPHOKINASE (0 mg/kg, […], tissue Plasma, dose level Control, time 14 day): 262 u/L
ABSOLUTE BASOPHIL [1]: 95 cells/µL
ABSOLUTE EOSINOPHIL [1]: 95 cells/µL
ABSOLUTE LYMPHOCYTE [1]: 13000 cells/µL
ABSOLUTE MONOCYTE [1]: 420 cells/µL
BASOPHIL [1]: 0.5%
EOSINOPHIL [1]: 0.55%
ERYTHROCYTE COUNT [1]: 6.36 x10E6/uL
HEMATOCRIT [1]: 43.4%
HEMOGLOBIN [1]: 13 G/DL
LEUKOCYTE COUNT [1]: 17.82 x10E3/uL
LYMPHOCYTE [1]: 73.55%
MEAN CORPUSCULAR HEMOGLOBIN [1]: 20.5 pg
MEAN CORPUSCULAR HEMOGLOBIN CONCENTRATION [1]: 30.05 G/DL
MEAN CORPUSCULAR VOLUME [1]: 68.3 fL
MONOCYTE [1]: 2.35%
NEUTROPHIL [1]: 22.05%
PLATELET COUNT [1]: 1170.5 x10E3/uL
ALANINE AMINOTRANSFERASE [2]: 32 u/L
ALBUMIN [2]: 3.9 G/DL
ALKALINE PHOSPHATASE [2]: 349 u/L
ASPARTATE AMINOTRANSFERASE [2]: 75.5 u/L
BLOOD UREA NITROGEN [2]: 17 mg/dL
CARBON DIOXIDE [2]: 40.5 mmol/L
CHLORIDE [2]: 107 MEQ/L
CHOLESTEROL [2]: 87.5 mg/dL
CREATINE PHOSPHOKINASE [2]: 449.5 u/L
CREATININE [2]: 0.55 mg/dL
GLUCOSE [2]: 141 mg/dL
LIPASE [2]: 47.5 u/L
PHOSPHORUS [2]: 9.6 mg/dL
POTASSIUM [2]: 6.05 MEQ/L
SODIUM [2]: 150.5 MEQ/L
TOTAL BILIRUBIN [2]: 0.3 mg/dL
TOTAL PROTEIN [2]: 6.25 G/DL
URIC ACID [2]: 0.8 mg/dL
ABSOLUTE BASOPHIL [3]: 50 cells/µL
ABSOLUTE EOSINOPHIL [3]: 110 cells/µL
ABSOLUTE LYMPHOCYTE [3]: 10400 cells/µL
ABSOLUTE MONOCYTE [3]: 350 cells/µL
BASOPHIL [3]: 0.37%
EOSINOPHIL [3]: 0.83%
ERYTHROCYTE COUNT [3]: 6.25 x10E6/uL
HEMATOCRIT [3]: 42.73%
HEMOGLOBIN [3]: 12.9 G/DL
LEUKOCYTE COUNT [3]: 14.26 x10E3/uL
LYMPHOCYTE [3]: 72.93%
MEAN CORPUSCULAR HEMOGLOBIN [3]: 20.63 pg
MEAN CORPUSCULAR HEMOGLOBIN CONCENTRATION [3]: 30.17 G/DL
MEAN CORPUSCULAR VOLUME [3]: 68.4 fL
MONOCYTE [3]: 2.5%
NEUTROPHIL [3]: 22.8%
PLATELET COUNT [3]: 1375.33 x10E3/uL
ALANINE AMINOTRANSFERASE [4]: 41.67 u/L
ALBUMIN [4]: 3.77 G/DL
ALKALINE PHOSPHATASE [4]: 331.33 u/L
ASPARTATE AMINOTRANSFERASE [4]: 78 u/L
BLOOD UREA NITROGEN [4]: 15.33 mg/dL
CARBON DIOXIDE [4]: 39.67 mmol/L
CHLORIDE [4]: 108 MEQ/L
CHOLESTEROL [4]: 85.67 mg/dL
CREATINE PHOSPHOKINASE [4]: 183 u/L
CREATININE [4]: 0.57 mg/dL
GLUCOSE [4]: 168.33 mg/dL
LIPASE [4]: 99 u/L
PHOSPHORUS [4]: 10.23 mg/dL
POTASSIUM [4]: 5.97 MEQ/L
SODIUM [4]: 150 MEQ/L
TOTAL BILIRUBIN [4]: 0.33 mg/dL
TOTAL PROTEIN [4]: 6.03 G/DL
URIC ACID [4]: 1 mg/dL
ABSOLUTE BASOPHIL [5]: 60 cells/µL
ABSOLUTE EOSINOPHIL [5]: 110 cells/µL
ABSOLUTE LYMPHOCYTE [5]: 11600 cells/µL
ABSOLUTE MONOCYTE [5]: 300 cells/µL
BASOPHIL [5]: 0.42%
EOSINOPHIL [5]: 0.72%
ERYTHROCYTE COUNT [5]: 6.69 x10E6/uL
HEMATOCRIT [5]: 44.4%
HEMOGLOBIN [5]: 14.28 G/DL
LEUKOCYTE COUNT [5]: 14.87 x10E3/uL
LYMPHOCYTE [5]: 78.08%
MEAN CORPUSCULAR HEMOGLOBIN [5]: 21.3 pg
MEAN CORPUSCULAR HEMOGLOBIN CONCENTRATION [5]: 32.12 G/DL
MEAN CORPUSCULAR VOLUME [5]: 66.4 fL
MONOCYTE [5]: 1.94%
NEUTROPHIL [5]: 18.22%
PLATELET COUNT [5]: 1074.6 x10E3/uL
ALANINE AMINOTRANSFERASE [6]: 40.6 u/L
ALBUMIN [6]: 4 G/DL
ALKALINE PHOSPHATASE [6]: 424.4 u/L
ASPARTATE AMINOTRANSFERASE [6]: 98.2 u/L
BLOOD UREA NITROGEN [6]: 19.2 mg/dL
CARBON DIOXIDE [6]: 38.8 mmol/L
CHLORIDE [6]: 105.8 MEQ/L
CHOLESTEROL [6]: 73.4 mg/dL
CREATINE PHOSPHOKINASE [6]: 274.2 u/L
CREATININE [6]: 0.8 mg/dL
GLUCOSE [6]: 132 mg/dL
LACTATE DEHYDROGENASE [6]: 214.4 u/L
LIPASE [6]: 11.8 u/L
PHOSPHORUS [6]: 9.98 mg/dL
POTASSIUM [6]: 6.02 MEQ/L
SODIUM [6]: 149.2 MEQ/L
TOTAL BILIRUBIN [6]: 0.36 mg/dL
TOTAL PROTEIN [6]: 6.46 G/DL
URIC ACID [6]: 0.62 mg/dL
ABSOLUTE BASOPHIL ([…], 72 h, tissue Blood, dose 4.2 mg/Kg, dose level M1, time 3 day): 0 CELLS/uL
